From paper PMC4186431 (Pharmacology Research & Perspectives, 2013)
Where two headings read alike, the source gives them in different places. Blank lines part the entries; values can stand above or below the molecule they belong to.

How the values were obtained:
[1] = system: forskolin-stimulated adenylate cyclase activity in parental HEK293 cells; assay: Forskolin-stimulated cAMP production in parental HEK293 cells; format: cell-based, human; conditions: 1 μmol/L or 10 μmol/L compound, parental HEK293 cells (Fig. 7 inset)
Procedure: (§1) cAMP levels were quantified using the homogeneous time-resolved fluorescence (HTRF)-based cAMP dynamic kit (Cisbio, Bioassays, Codolet, France). […] In all cases, basal cAMP levels were determined in control wells in the absence of agonist. The effects of the compounds on forskolin-stimulated adenylate cyclase activity were evaluated either at a single concentration (parental HEK293 cells) or by using concentration–response curves (HEK-hu5-HT7 cells). Cells were incubated in the absence (control) or presence of the compounds, at the concentrations indicated, in assay buffer for 15 min at 37°C prior to the addition of forskolin and further incubation for 15 min. Basal cAMP levels were determined in control wells in the absence of forskolin. After proceeding with the subsequent assay steps according to the manufacturer's protocol, the fluorescence emission intensity ratio at 665/620 nm wavelength was measured in an Ultra Evolution 384 microplate reader (TECAN, Männedorf, Switzerland).

mice = system: mice; parameters: method as in Adriani et al. [2012]; conditions: ref Adriani et al. [2012]; cited from earlier work
[2] = system: isolated guinea pig ileum; parameters: method as in Leopoldo et al. [2008]; conditions: ex vivo; ref Leopoldo et al. [2008]; cited from earlier work
[3] = system: forskolin-stimulated adenylate cyclase activity in HEK-hu5-HT7 cells; assay: Forskolin-stimulated cAMP production, preincubation/washout experiments, HEK-hu5-HT7 cells; format: cell-based; conditions: Homo sapiens; 30 min preincubation, washout, then 10 μmol/L forskolin 15 min, n = 3; read-out: IC50, irrev, forskolin-stimulated adenylate cyclase activity
Procedure: (§2) After proceeding with the subsequent assay steps according to the manufacturer's protocol, fluorescence was measured as previously described.
(§3) The data were analyzed using GraphPad Prism software v4.0 (GraphPad Software Inc., San Diego, CA). Receptor density (Bmax) and the dissociation constant (Kd) of the radioligand were determined by nonlinear regression curve fitting of saturation binding curves to a one-site binding (hyperbola) model. […] The IC50 values were determined by nonlinear regression curve fitting to sigmoidal dose–response or sigmoidal dose–response (variable slope) models, as indicated. […] Results are expressed as the mean values ± SEM from the number of independent experiments indicated.

5-HT1A [4] = conditions: ref Leopoldo et al. [2008], cited from earlier work
[5] = parameters: method as in Hedlund et al. [2010]; conditions: mice; ref Hedlund et al. [2010]; cited from earlier work
mouse hippocampal slices = system: mouse hippocampal slices; parameters: method as in Costa et al. [2012]; conditions: ref Costa et al. [2012]; cited from earlier work
[6] = system: wild type and 5-HT7 knock-out mice; parameters: method as in Hedlund et al. [2010]; conditions: ref Hedlund et al. [2010]; cited from earlier work
rat 5-HT7 receptors = molecular target: rat 5-HT7 receptors; parameters: method as in Leopoldo et al. [2008]; Hedlund et al. [2010]; conditions: cloned in cell lines; ref Leopoldo et al. [2008]; Hedlund et al. [2010]; cited from earlier work
human 5-HT7(a) receptor [7] = molecular target: T1, human 5-HT7(a) receptor (Homo sapiens, UniProt P34969); assay: Membrane homogenate [^3H]-SB-269970 radioligand binding; conditions: for Hill slope nH (membrane homogenate radioligand binding): [^3H]-SB-269970 competition, best fit model (nH = 1 or variable slope)
Procedure: Cell membrane homogenate was prepared as previously described (Varin et al. [2010]). […] After incubation, the reactions were stopped by filtration in a harvester apparatus through GF/B filters pretreated with 0.25% (w/v) poly(ethyleneimine) solution. Filters were counted in a LS-6000LL beta counter (Beckman Coulter, Inc., Fullerton, CA, USA).
as §3, with “experiments indicated. Prediction of log of octanol/water partition coefficient (xlog P) values were retrieved from ZINC database (http://zinc.docking.org/) (Irwin et al. [2012]).” for “experiments indicated.”

D2 = molecular target: D2; parameters: method as in Leopoldo et al. [2008]; conditions: ref Leopoldo et al. [2008]; cited from earlier work
[8] = system: forskolin-stimulated adenylate cyclase activity in HEK-hu5-HT7 cells; assay: Forskolin-stimulated cAMP production in the presence of the compounds, HEK-hu5-HT7 cells; format: cell-based; conditions: Homo sapiens; 10 μmol/L forskolin, continuous presence of the compounds; read-out: IC50, inhibition of forskolin-stimulated adenylate cyclase activity
Procedure: as §1
The data were analyzed using GraphPad Prism software v4.0 (GraphPad Software Inc., San Diego, CA). Receptor density (Bmax) and the dissociation constant (Kd) of the radioligand were determined by nonlinear regression curve fitting of saturation binding curves to a one-site binding (hyperbola) model. […] Results are expressed as the mean values ± SEM from the number of independent experiments indicated. […]

human 5-HT7(a) receptor [9] = molecular target: T1, human 5-HT7(a) receptor; assay: cAMP assay, agonist effects in HEK-hu5-HT7 cells; format: cell-based; conditions: 100 pmol/L to 10 μmol/L, data not shown
Procedure: as §1

[10] = system: rat trigeminal nucleus caudalis; parameters: method as in Martínez-García et al. [2011]; conditions: ref Martínez-García et al. [2011]; cited from earlier work
human 5-HT7(a) receptor [11] = molecular target: T1, human 5-HT7(a) receptor; assay: Whole-cell [^3H]-SB-269970 radioligand binding (preincubation/washout experiments); conditions: for inhibition at 10 µM: read-out: Inhibition of specific binding of [^3H]-SB-269970 after preincubation and washout, 10 μmol/L, 30 min at 37°C, time t = 0 after washout
Procedure: After incubation for 30 min at 37°C, the assay was stopped, as previously described.
as §3, with “experiments indicated. Prediction of log of octanol/water partition coefficient (xlog P) values were retrieved from ZINC database (http://zinc.docking.org/) (Irwin et al. [2012]).” for “experiments indicated.”

human 5-HT7 receptors [12] = molecular target: T2, human 5-HT7 receptors (Homo sapiens, UniProt P34969); assay: [^3H]-LSD binding in membrane homogenates of HEK-hu5-HT7 cells
human 5-HT7 receptors [13] = molecular target: T2, human 5-HT7 receptors; conditions: estimated from experiments with behavior not compatible with classical competitive binding; ref Leopoldo et al. [2008]; cited from earlier work
human 5-HT7(a) receptor [14] = molecular target: T1, human 5-HT7(a) receptor; assay: Whole-cell [^3H]-SB-269970 radioligand binding (in the presence of the compounds)
Procedure: as §3, with “experiments indicated. Prediction of log of octanol/water partition coefficient (xlog P) values were retrieved from ZINC database (http://zinc.docking.org/) (Irwin et al. [2012]).” for “experiments indicated.”

human 5-HT7(a) receptor [15] = molecular target: T1, human 5-HT7(a) receptor; assay: 5-CT-stimulated cAMP assay in the presence of the compounds (antagonist curves, Schild analysis), HEK-hu5-HT7 cells; format: cell-based
Procedure: as §1, with “forskolin.” for “forskolin. After proceeding with the subsequent assay steps according to the manufacturer's protocol, the fluorescence emission intensity ratio at 665/620 nm wavelength was measured in an Ultra Evolution 384 microplate reader (TECAN, Männedorf, Switzerland).”
as §3

5-HT1A [16] = assay: Literature affinity for 5-HT1A receptors; format: binding; conditions: reported 5-HT1A affinity versus 5-HT7 affinity of this study; ref Leopoldo et al. [2008]
human 5-HT7(a) receptor [17] = molecular target: T1, human 5-HT7(a) receptor; assay: 5-CT-stimulated cAMP assay, preincubation/washout experiments, HEK-hu5-HT7 cells; format: cell-based; conditions: read-out: IC50, irrev, 5-CT-stimulated cAMP production
Procedure: as §2, §3

5-HT7 receptors = system: 5-HT7 receptors; parameters: method as in Lacivita et al. [2012]; conditions: ref Lacivita et al. [2012]; cited from earlier work

T1 sequence (P34969 1-445 isoform P34969-2): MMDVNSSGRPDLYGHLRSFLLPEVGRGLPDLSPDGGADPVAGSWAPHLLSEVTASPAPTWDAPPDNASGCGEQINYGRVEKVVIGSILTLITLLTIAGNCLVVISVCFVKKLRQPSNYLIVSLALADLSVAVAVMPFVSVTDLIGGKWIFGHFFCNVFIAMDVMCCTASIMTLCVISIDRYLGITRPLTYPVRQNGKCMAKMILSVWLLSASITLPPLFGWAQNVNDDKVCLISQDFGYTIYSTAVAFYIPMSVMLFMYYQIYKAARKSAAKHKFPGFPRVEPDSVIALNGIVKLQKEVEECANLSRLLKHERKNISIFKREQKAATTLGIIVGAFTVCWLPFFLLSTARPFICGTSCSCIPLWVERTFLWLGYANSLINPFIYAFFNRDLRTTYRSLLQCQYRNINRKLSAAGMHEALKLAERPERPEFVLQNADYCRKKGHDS
T2 sequence (P34969 1-445 isoform P34969-2): as above

Hill slope nH (membrane homogenate radioligand binding) (human 5-HT7(a) receptor [7]): 1 | inhibition at 10 µM (human 5-HT7(a) receptor [11]): 95.03 ± 0.47%
SMILES: N#Cc1ccc(CNC(=O)CCCCCN2CCN(c3ccccc3-c3ccccc3)CC2)cc1 [LP-211, N-(4-cyanophenylmethyl)-4-(2-diphenyl)-1-piperazinehexanamide]
Effect on forskolin-stimulated cAMP production in the parental cell line [1]: no effect | Behavioural effect in mice (anxiety) (mice): antianxiety-like effects | Effect on substance P-induced contraction in isolated guinea pig ileum [2]: elicited relaxation of substance P-induced contraction | IC50 [3]: 13.9 ± 3.93 nM | Ki (5-HT1A [4]; Hedlund et al. [2010]): 188 to 379 nM | Metabolism in disposition studies [5]: undergoes N-dealkylation to RA-7 | Effect on long-term synaptic depression induced by metabotropic glutamate receptors (mouse hippocampal slices): reverted long-term synaptic depression | Effect on body temperature in wild type and 5-HT7 knock-out mice [6]: induced hypothermia in wild type but not in 5-HT7 knock-out mice | Ki (rat 5-HT7 receptors): 0.58 nM | Ki (D2): 142 nM | IC50 [8]: 60.71 ± 0.48 nM | Agonist effect on cAMP levels (human 5-HT7(a) receptor [9]): did not elicit any detectable increase in cAMP levels | Effect on capsaicin-induced increase in Fos-like immunoreactivity [10]: able to modulate the capsaicin-induced increase

nH, displacement of [^3H]-LSD binding (human 5-HT7 receptors [12]; data not shown): 1.11 ± 0.19 | Ki (human 5-HT7 receptors [12]; n = 3, data not shown, read-out: Ki, displacement of [^3H]-LSD binding): 37.9 ± 11.3 nM | Ki (human 5-HT7(a) receptor [14]; read-out: 5-HT7 affinity (whole-cell radioligand binding) Ki): 13.8 ± 0.24 nM | IC50 (human 5-HT7(a) receptor [15]): 27.8 ± 6.72 nM | Fold lower affinity for 5-HT1A receptors than for 5-HT7 receptors (5-HT1A [16]): 9.7 fold | 5-HT7 affinity (membrane homogenate radioligand binding) pKi (human 5-HT7(a) receptor [7]; 2 nmol/L [^3H]-SB-269970, HEK-hu5-HT7 membrane homogenate): 7.78 | Ki (human 5-HT7(a) receptor [7]; 2 nmol/L [^3H]-SB-269970, HEK-hu5-HT7 membrane homogenate, 60 min 37°C, read-out: 5-HT7 affinity (membrane homogenate radioligand binding) Ki): 16.6 ± 0.99 nM | Hill slope nH (membrane homogenate radioligand binding) (human 5-HT7(a) receptor [7]): 1.34 ± 0.14 | IC50 (human 5-HT7(a) receptor [17]): 41.8 ± 18 nM | IC50 (human 5-HT7(a) receptor [11]; 30 min preincubation, washout, then 2 nmol/L radioligand): 22.4 ± 7.63 nM | inhibition at 10 µM (human 5-HT7(a) receptor [11]): 97.2 ± 0.23%
SMILES: O=C(CCCCCN1CCN(c2ccccc2-c2ccccc2)CC1)NCc1ccccc1 [MEL-9, N-benzyl-4-(2-diphenyl)-1-piperazinehexanamide]
Effect on forskolin-stimulated cAMP production in the parental cell line [1]: no effect | Ki (human 5-HT7 receptors [13]): 0.8 nM | IC50 [3]: 11.2 ± 3.25 nM | Ki (5-HT1A [4]): 503 nM | Ki (D2): 161 nM | IC50 [8]: 19.3 ± 8.18 nM | Agonist effect on cAMP levels (human 5-HT7(a) receptor [9]): did not elicit any detectable increase in cAMP levels

SMILES: c1ccc(-c2ccccc2N2CCNCC2)cc1 [RA-7, 1-(2-biphenyl)piperazine]
remaining activity at 10 µM (human 5-HT7(a) receptor [14]; read-out: [^3H]-SB-269970 specific binding (percent of control), competitive whole-cell binding, 10 μmol/L, n = 3): 0.64 ± 0.44% | Inhibition of specific binding of [^3H]-SB-269970 after preincubation and washout (human 5-HT7(a) receptor [11]; 10 μmol/L, 30 min at 37°C, time t = 0 after washout): ~50% | Duration of inhibition of [^3H]-SB-269970 binding after compound removal (human 5-HT7(a) receptor [11]; preincubation with 10 μmol/L, recovery followed at 0, 1, 3, 6 and 24 h): at least 24 h | inhibition at 10 µM (human 5-HT7(a) receptor [11]): 54.8 ± 5.15% | Action at 5-HT7 receptors in HeLa cells (5-HT7 receptors): high-affinity receptor 5-HT7 antagonist
